Measurements published in publication PMC8037182, “Solvothermal Synthesis of Multiple Dihydropyrimidinones at a Time as Inhibitors of Eg5” (Molecules, 2021).

Test system: Caco-2 cell line
Experiment: Cytotoxicity MTS assay, Caco-2 cell line
Format: cell-based
Conditions: for OD490 Mean / OD490 Well 1 / OD490 Well 2 / OD490 Well 3: Caco-2 cell line; for IC50: MTS assay, 24 h exposure
Description: The positive compounds (IC50 < 100 μM) obtained from the primary Eg5 motor protein ATPase assay were tested for antiproliferative activity in vitro against Caco-2 cell line, Hela cell line, L929 cell line and T24 cell line by performing MTS assay. Cells were introduced into 96-well plates at a density of 1000 cells per well. After 24 h incubation, the cells were exposed with compounds at final concentrations ranging from 0.5 to 100 µM for 24 h. DMSO was used at a final concentration of 0.025% as blank control, monastrol was used as the positive control. Then 20 µL (CellTiter 96® AQueous One Solution Promega, Madison, WI, USA) reagent was added in each well. After 2 h at 37 °C in a 80% humidified, 5% CO2 atmosphere, the absorbance at 490 nm was recorded using a microplate reader (BIO-RAD iMark^TM). The results were obtained in three independent duplicate experiments. The primary data were shown in Supplementary Materials Tables S4–S7. The IC50 values for these compounds were calculated from a non-linear regression graph plotted between the percentage of cell viability and concentration with SPSS17.0 software.

`CCOC(=O)c1[nH]c(C2NC(=O)NC(C)=C2C(=O)Nc2ccc(Cl)cc2)c(C(=O)OCC)c1C` (centres unmarked) [D7] was tested, and the “OD490 Mean” value (0.5μM, first assay) was 0.5690, the “OD490 Well 1” value (0.5μM, first assay) was 0.5534 and the “OD490 Well 2” value (0.5μM, first assay) was 0.6352. The “OD490 Well 3” value (0.5μM, first assay) was 0.5185, the “OD490 Mean” value (0.5μM, second assay) was 0.6172 and the “OD490 Well 1” value (0.5μM, second assay) was 0.6374. For the same compound, the “OD490 Well 2” value (0.5μM, second assay) was 0.6303, the “OD490 Well 3” value (0.5μM, second assay) was 0.5839 and the “OD490 Mean” value (0.5μM, third assay) was 0.5837. The “OD490 Well 1” value (0.5μM, third assay) was 0.6634, the “OD490 Well 2” value (0.5μM, third assay) was 0.5231 and the “OD490 Well 3” value (0.5μM, third assay) was 0.5647. The “OD490 Mean” value (1μM, first assay) was 0.5311, the “OD490 Well 1” value (1μM, first assay) was 0.5419 and the “OD490 Well 2” value (1μM, first assay) was 0.5318. The “OD490 Well 3” value (1μM, first assay) was 0.5197, the “OD490 Mean” value (1μM, second assay) was 0.5625 and the “OD490 Well 1” value (1μM, second assay) was 0.5454. For the same compound, the “OD490 Well 2” value (1μM, second assay) was 0.5593, the “OD490 Well 3” value (1μM, second assay) was 0.5827 and the “OD490 Mean” value (1μM, third assay) was 0.5540. For the same compound, the “OD490 Well 1” value (1μM, third assay) was 0.5665, the “OD490 Well 2” value (1μM, third assay) was 0.5741 and the “OD490 Well 3” value (1μM, third assay) was 0.5214. For the same compound, the “OD490 Mean” value (10μM, first assay) was 0.5404, the “OD490 Well 1” value (10μM, first assay) was 0.5519 and the “OD490 Well 2” value (10μM, first assay) was 0.5485. For the same compound, the “OD490 Well 3” value (10μM, first assay) was 0.5208, the “OD490 Mean” value (10μM, second assay) was 0.5334 and the “OD490 Well 1” value (10μM, second assay) was 0.5402. The “OD490 Well 2” value (10μM, second assay) was 0.5543, the “OD490 Well 3” value (10μM, second assay) was 0.5057 and the “OD490 Mean” value (10μM, third assay) was 0.5421. The “OD490 Well 1” value (10μM, third assay) was 0.5552, the “OD490 Well 2” value (10μM, third assay) was 0.5101 and the “OD490 Well 3” value (10μM, third assay) was 0.5610. For the same compound, the “OD490 Mean” value (25μM, first assay) was 0.5145, the “OD490 Well 1” value (25μM, first assay) was 0.5041 and the “OD490 Well 2” value (25μM, first assay) was 0.5114. The “OD490 Well 3” value (25μM, first assay) was 0.5279, the “OD490 Mean” value (25μM, second assay) was 0.5117 and the “OD490 Well 1” value (25μM, second assay) was 0.548. For the same compound, the “OD490 Well 2” value (25μM, second assay) was 0.4698, the “OD490 Well 3” value (25μM, second assay) was 0.5172 and the “OD490 Mean” value (25μM, third assay) was 0.5181. For the same compound, the “OD490 Well 1” value (25μM, third assay) was 0.5221, the “OD490 Well 2” value (25μM, third assay) was 0.5321 and the “OD490 Well 3” value (25μM, third assay) was 0.5000. The “OD490 Mean” value (50μM, first assay) was 0.4389, the “OD490 Well 1” value (50μM, first assay) was 0.5283 and the “OD490 Well 2” value (50μM, first assay) was 0.4168. The “OD490 Well 3” value (50μM, first assay) was 0.3716, the “OD490 Mean” value (50μM, second assay) was 0.4826 and the “OD490 Well 1” value (50μM, second assay) was 0.5209. The “OD490 Well 2” value (50μM, second assay) was 0.4937, the “OD490 Well 3” value (50μM, second assay) was 0.4332 and the “OD490 Mean” value (50μM, third assay) was 0.4437. The “OD490 Well 1” value (50μM, third assay) was 0.5112, the “OD490 Well 2” value (50μM, third assay) was 0.4213 and the “OD490 Well 3” value (50μM, third assay) was 0.3987. For the same compound, the “OD490 Mean” value (100μM, first assay) was 0.3891, the “OD490 Well 1” value (100μM, first assay) was 0.3713 and the “OD490 Well 2” value (100μM, first assay) was 0.3955. The “OD490 Well 3” value (100μM, first assay) was 0.4006, the “OD490 Mean” value (100μM, second assay) was 0.4527 and the “OD490 Well 1” value (100μM, second assay) was 0.4755. The “OD490 Well 2” value (100μM, second assay) was 0.4428, the “OD490 Well 3” value (100μM, second assay) was 0.4398 and the “OD490 Mean” value (100μM, third assay) was 0.3973. For the same compound, the “OD490 Well 1” value (100μM, third assay) was 0.4012, the “OD490 Well 2” value (100μM, third assay) was 0.4123 and the “OD490 Well 3” value (100μM, third assay) was 0.3785. For the same compound, the IC50 was 81.9 µM.

`CCOC(=O)c1c(C2NC(=O)NC(C)=C2C(=O)Nc2ccccc2)[nH]c(C(=O)OC)c1C` (centres unmarked) [D10] was tested, and the “OD490 Mean” value (0.5μM, first assay) was 0.4742, the “OD490 Well 1” value (0.5μM, first assay) was 0.4527 and the “OD490 Well 2” value (0.5μM, first assay) was 0.4966. The “OD490 Well 3” value (0.5μM, first assay) was 0.4734, the “OD490 Mean” value (0.5μM, second assay) was 0.5530 and the “OD490 Well 1” value (0.5μM, second assay) was 0.531. For the same compound, the “OD490 Well 2” value (0.5μM, second assay) was 0.6234, the “OD490 Well 3” value (0.5μM, second assay) was 0.5045 and the “OD490 Mean” value (0.5μM, third assay) was 0.6289. For the same compound, the “OD490 Well 1” value (0.5μM, third assay) was 0.6132, the “OD490 Well 2” value (0.5μM, third assay) was 0.6414 and the “OD490 Well 3” value (0.5μM, third assay) was 0.6321. The “OD490 Mean” value (1μM, first assay) was 0.5016, the “OD490 Well 1” value (1μM, first assay) was 0.5182 and the “OD490 Well 2” value (1μM, first assay) was 0.4910. The “OD490 Well 3” value (1μM, first assay) was 0.4957, the “OD490 Mean” value (1μM, second assay) was 0.6121 and the “OD490 Well 1” value (1μM, second assay) was 0.5315. The “OD490 Well 2” value (1μM, second assay) was 0.6788, the “OD490 Well 3” value (1μM, second assay) was 0.626 and the “OD490 Mean” value (1μM, third assay) was 0.6367. The “OD490 Well 1” value (1μM, third assay) was 0.6031, the “OD490 Well 2” value (1μM, third assay) was 0.6621 and the “OD490 Well 3” value (1μM, third assay) was 0.6449. The “OD490 Mean” value (10μM, first assay) was 0.4933, the “OD490 Well 1” value (10μM, first assay) was 0.4499 and the “OD490 Well 2” value (10μM, first assay) was 0.5248. For the same compound, the “OD490 Well 3” value (10μM, first assay) was 0.5052, the “OD490 Mean” value (10μM, second assay) was 0.5658 and the “OD490 Well 1” value (10μM, second assay) was 0.6. For the same compound, the “OD490 Well 2” value (10μM, second assay) was 0.624, the “OD490 Well 3” value (10μM, second assay) was 0.4735 and the “OD490 Mean” value (10μM, third assay) was 0.6081. The “OD490 Well 1” value (10μM, third assay) was 0.6012, the “OD490 Well 2” value (10μM, third assay) was 0.6321 and the “OD490 Well 3” value (10μM, third assay) was 0.5911. For the same compound, the “OD490 Mean” value (25μM, first assay) was 0.4730, the “OD490 Well 1” value (25μM, first assay) was 0.3491 and the “OD490 Well 2” value (25μM, first assay) was 0.5643. For the same compound, the “OD490 Well 3” value (25μM, first assay) was 0.5057, the “OD490 Mean” value (25μM, second assay) was 0.5406 and the “OD490 Well 1” value (25μM, second assay) was 0.5132. The “OD490 Well 2” value (25μM, second assay) was 0.5889, the “OD490 Well 3” value (25μM, second assay) was 0.5197 and the “OD490 Mean” value (25μM, third assay) was 0.5321. The “OD490 Well 1” value (25μM, third assay) was 0.5365, the “OD490 Well 2” value (25μM, third assay) was 0.4987 and the “OD490 Well 3” value (25μM, third assay) was 0.5612. For the same compound, the “OD490 Mean” value (50μM, first assay) was 0.4403, the “OD490 Well 1” value (50μM, first assay) was 0.3579 and the “OD490 Well 2” value (50μM, first assay) was 0.5436. For the same compound, the “OD490 Well 3” value (50μM, first assay) was 0.4193, the “OD490 Mean” value (50μM, second assay) was 0.4763 and the “OD490 Well 1” value (50μM, second assay) was 0.4113. The “OD490 Well 2” value (50μM, second assay) was 0.5208, the “OD490 Well 3” value (50μM, second assay) was 0.4969 and the “OD490 Mean” value (50μM, third assay) was 0.4757. For the same compound, the “OD490 Well 1” value (50μM, third assay) was 0.4698, the “OD490 Well 2” value (50μM, third assay) was 0.4875 and the “OD490 Well 3” value (50μM, third assay) was 0.4698. The “OD490 Mean” value (100μM, first assay) was 0.4342, the “OD490 Well 1” value (100μM, first assay) was 0.3369 and the “OD490 Well 2” value (100μM, first assay) was 0.4685. For the same compound, the “OD490 Well 3” value (100μM, first assay) was 0.4971, the “OD490 Mean” value (100μM, second assay) was 0.4596 and the “OD490 Well 1” value (100μM, second assay) was 0.4737. For the same compound, the “OD490 Well 2” value (100μM, second assay) was 0.4587, the “OD490 Well 3” value (100μM, second assay) was 0.4463 and the “OD490 Mean” value (100μM, third assay) was 0.4349. For the same compound, the “OD490 Well 1” value (100μM, third assay) was 0.4356, the “OD490 Well 2” value (100μM, third assay) was 0.4169 and the “OD490 Well 3” value (100μM, third assay) was 0.4521. The IC50 was 108 µM.
